# Values of other authors as cited in patent publication US20260263393A1, “CO[…], […] COMBINATION WITH N-ACYLETHANOLAMINES, AND USES THEREOF” (Clearmind Labs Corp., priority 2023, published 2026).
# Settings: ibogaine administered to treat drug dependence
structure (smiles),measurement,value
"CC[C@H]1CC2C[C@H]3c4[nH]c5ccc(OC)cc5c4CC[N@@](C2)C13 [ibogaine, Ibogaine]",reduction in drug craving (duration),up to several weeks
same,sustained resolution of the withdrawal syndromes (time to),12 to 18 h
